{"source": "patent US20220378928A1", "about": "“A Camptothecin Drug and Its Antibody Conjugate Thereof” (priority 2020, published 2022)", "assay_in_all_cases": "Camptothecin drug cellular activity test (MTS cell proliferation)", "type_in_all_cases": "cell-based, human", "key": {"A431": {"system": "A431", "conditions": "read-out: Cell Viability, A431", "experimental": "(§1) The cytotoxic activity of camptothecin drugs was determined by the following experimental process: Camptothecin drugs were added to cell culture media that grows human tumors cells that express A431, Fadu, Bxpc-3 (EGFR-positive cells) and U87-MG, SW620 (negative control cells). Cell survival rates were measured after the cells were cultured for 72 hours. Cell-based in vitro experiments are used to determine cell survival rate, cytotoxicity, and programmed cell death induced by the camptothecin drug of the present application.\n(§2) The in vitro efficacy of the camptothecin drugs was determined by cell proliferation test. CellTiter 96® Aqueous One Solution Cell Proliferation Assay is commercially available (Promega Corp., Madison, Wis.). CellTiter 96® AQueous One Solution Cell Proliferation Assay(a) is a colorimetric method to detect the number of living cells in cell proliferation and cytotoxicity experiments. This reagent contains a novel tetrazolium compound [3-(4, 5-dimethylthiazol-2-yl)-5-(3-carboxymethoxyphenyl)-2-(4-sulfophenyl)-2H-tetrazolium, inner salt; MTS] and an electronic coupling agent (phenazine ethosulfate; PES). PES has enhanced chemical stability, which allows it to be mixed with MTS to form a stable solution. This convenient “single solution” mode is an improvement on the basis of the first generation CellTiter 96*AQueous Assay. The electronic coupling agent PMS and MTS solution used in the CellTiter 96*AQueous Assay are provided separately. MTS (Owen's reagent) is reduced by cell organisms into a colored formazan product (Illustration 1), which can be directly dissolved in the culture medium.\n(§3) The conversion in all likelihood is completed under the action of NADPH or NADH produced by dehydrogenases in metabolically active cells. When testing, just add a small amount of CellTiter 96® AQueous One Solution Reagent directly to the culture plate well, incubate for 1-4 hours, and then read the absorbance value at 490 nm with a microplate reader.\n(§4) The amount of formazan detected at 490 nm is directly proportional to the number of viable cells in culture. Since the formazan product of MTS is soluble in tissue culture medium, CellTiter 96® AQueous One Solution Assay has fewer steps than MTT or INT methods.\n(§5) In the present application, A431, Fadu, Bxpc-3 (EGFR positive expressing cells) and U87-MG, SW620 (negative control cells) are used as the research system for in vitro drug efficacy detection. In a 96-well plate, use an appropriate cell density for plating, and after 24 hours, add camptothecin. After 24 hours, dilute the camptothecin drug with the test medium (1 uM start, 5-fold dilution, 9 concentrations, add test medium in the tenth column as a blank control), and add the diluted camptothecin drug to the corresponding cell wells. The cell wells were then shaken with a microplate shaker (model: MX100-4A) for 3 minutes at a shaking speed of 550 rpm/min. After shaking, they were placed in a carbon dioxide incubator and incubated for 3 days. After 3 days, add 20 uL MTS (Promega, G3581) to each well for 2 hours, and the microplate reader (Molecular Device, model: SpectraMAX190) reads at […]. By detecting the activity of dehydrogenase in mitochondria, the inhibitory effect of camptothecin drugs on cell proliferation was evaluated."}, "Fadu": {"system": "Fadu", "conditions": "read-out: Cell Viability, Fadu", "experimental": "as §1, §2, §3, §4, §5"}, "U87-MG": {"system": "U87-MG", "conditions": "read-out: Cell Viability, U87-MG", "experimental": "as §1, §2, §3, §4, §5"}, "SW620": {"system": "SW620", "conditions": "read-out: Cell Viability, SW620", "experimental": "as §1, §2, §3, §4, §5"}, "BXPC-3": {"system": "BXPC-3", "conditions": "read-out: Cell Viability, BXPC-3", "experimental": "as §1, §2, §3, §4, §5"}, "[1]": {"conditions": "Homo sapiens, A-431, 72 h, A431, EGFR-positive cells, 3 days incubation, MTS"}, "[2]": {"conditions": "Homo sapiens, 72 h, Fadu, EGFR-positive cells, 3 days incubation, MTS"}, "[3]": {"conditions": "Homo sapiens, U-87 MG, 72 h, U87-MG, negative control cells, 3 days incubation, MTS"}, "[4]": {"conditions": "Homo sapiens, SW-620, 72 h, SW620, negative control cells, 3 days incubation, MTS"}, "[5]": {"conditions": "Homo sapiens, 72 h, BXPC-3, EGFR-positive cells, 3 days incubation, MTS"}}, "note": "Like-named read-outs stand apart in the source and are kept apart here."}
{"smiles": "CC[C@@]1(O)C(=O)OCc2c1cc1n(c2=O)Cc2c-1nc1cc(F)c(C)c3c1c2[C@@H](NC(=O)[C@H](C)O)CC3", "note": "[Compound 2]", "values": [{"measurement": "IC50", "setting": "A431; [1]", "value": 40.9, "unit": "nM"}, {"measurement": "IC50", "setting": "Fadu; [2]", "value": 11.1, "unit": "nM"}, {"measurement": "IC50", "setting": "U87-MG; [3]", "value": 7.4, "unit": "nM"}, {"measurement": "IC50", "setting": "SW620; [4]", "value": 10.4, "unit": "nM"}, {"measurement": "IC50", "setting": "BXPC-3; [5]", "value": 38.8, "unit": "nM"}]}
{"smiles": "CC[C@@]1(O)C(=O)OCc2c1cc1n(c2=O)Cc2c-1nc1cc(F)c(C)c3c1c2[C@H](NC(=O)[C@H](O)C(F)(F)F)CC3", "note": "[Compound 12]", "values": [{"measurement": "IC50", "setting": "A431; [1]", "value": 15.5, "unit": "nM"}, {"measurement": "IC50", "setting": "Fadu; [2]", "value": 0.002, "unit": "nM"}, {"measurement": "IC50", "setting": "U87-MG; [3]", "value": 0.06, "unit": "nM"}, {"measurement": "IC50", "setting": "SW620; [4]", "value": 0.06, "unit": "nM"}, {"measurement": "IC50", "setting": "BXPC-3; [5]", "value": 1.6, "unit": "nM"}]}
{"smiles": "CC[C@@]1(O)C(=O)OCc2c1cc1n(c2=O)Cc2c-1nc1cc(F)c(C)c3c1c2[C@H](NC(=O)[C@@H](O)C(F)(F)F)CC3", "note": "[Compound 13]", "values": [{"measurement": "IC50", "setting": "A431; [1]", "value": 6.37, "unit": "nM"}, {"measurement": "IC50", "setting": "Fadu; [2]", "value": 0.06, "unit": "nM"}, {"measurement": "IC50", "setting": "U87-MG; [3]", "value": "0.32 to 1.6", "unit": "nM"}, {"measurement": "IC50", "setting": "SW620; [4]", "value": 1.06, "unit": "nM"}, {"measurement": "IC50", "setting": "BXPC-3; [5]", "value": 40, "unit": "nM"}]}
{"smiles": "CC[C@@]1(O)C(=O)OCc2c1cc1n(c2=O)Cc2c-1nc1cc(F)c(C)c3c1c2[C@@H](NC(=O)C1(O)CCCC1)CC3", "note": "[Compound 25]", "values": [{"measurement": "IC50", "setting": "A431; Homo sapiens, A-431, 72 h", "value": 11.7, "unit": "nM"}, {"measurement": "IC50", "setting": "Fadu; Homo sapiens, FaDu, 72 h", "value": 41, "unit": "nM"}, {"measurement": "IC50", "setting": "U87-MG; Homo sapiens, U-87 MG, 72 h", "value": 10.4, "unit": "nM"}, {"measurement": "IC50", "setting": "SW620; Homo sapiens, SW-620, 72 h", "value": 1.5, "unit": "nM"}, {"measurement": "IC50", "setting": "BXPC-3; Homo sapiens, BXPC-3, 72 h", "value": 15.8, "unit": "nM"}]}
{"smiles": "CC[C@@]1(O)C(=O)OCc2c1cc1n(c2=O)Cc2c-1nc1cc(F)c(C)c3c1c2[C@@H](NC(=O)C(O)c1ccccc1)CC3", "note": "(stereo partly drawn) [Compound 28]", "values": [{"measurement": "IC50", "setting": "A431; Homo sapiens, A-431, 72 h", "value": 5.12, "unit": "nM"}, {"measurement": "IC50", "setting": "Fadu; Homo sapiens, FaDu, 72 h", "value": 14.2, "unit": "nM"}, {"measurement": "IC50", "setting": "U87-MG; Homo sapiens, U-87 MG, 72 h", "value": 18.3, "unit": "nM"}, {"measurement": "IC50", "setting": "SW620; Homo sapiens, SW-620, 72 h", "value": 11.9, "unit": "nM"}, {"measurement": "IC50", "setting": "BXPC-3; Homo sapiens, BXPC-3, 72 h", "value": 81, "unit": "nM"}]}
{"smiles": "CC[C@@]1(O)C(=O)OCc2c1cc1n(c2=O)Cc2c-1nc1cc(F)c(C)c3c1c2[C@@H](NC(=O)[C@H](O)c1cc(F)cc(F)c1)CC3", "note": "[Compound 29]", "values": [{"measurement": "IC50", "setting": "A431; Homo sapiens, A-431, 72 h", "value": 19.6, "unit": "nM"}, {"measurement": "IC50", "setting": "Fadu; Homo sapiens, FaDu, 72 h", "value": 41.3, "unit": "nM"}, {"measurement": "IC50", "setting": "U87-MG; Homo sapiens, U-87 MG, 72 h", "value": 23.6, "unit": "nM"}, {"measurement": "IC50", "setting": "SW620; Homo sapiens, SW-620, 72 h", "value": 2.15, "unit": "nM"}, {"measurement": "IC50", "setting": "BXPC-3; Homo sapiens, BXPC-3, 72 h", "value": 90.1, "unit": "nM"}]}
{"smiles": "CC[C@@]1(O)C(=O)OCc2c1cc1n(c2=O)Cc2c-1nc1cc(F)c(C)c3c1c2[C@@H](NC(=O)[C@H](O)c1ccc2c(c1)OCO2)CC3", "note": "[Compound 30]", "values": [{"measurement": "IC50", "setting": "A431; Homo sapiens, A-431, 72 h", "value": 19.9, "unit": "nM"}, {"measurement": "IC50", "setting": "Fadu; Homo sapiens, FaDu, 72 h", "value": 19.2, "unit": "nM"}, {"measurement": "IC50", "setting": "U87-MG; Homo sapiens, U-87 MG, 72 h", "value": 29.9, "unit": "nM"}, {"measurement": "IC50", "setting": "SW620; Homo sapiens, SW-620, 72 h", "value": 2.25, "unit": "nM"}, {"measurement": "IC50", "setting": "BXPC-3; Homo sapiens, BXPC-3, 72 h", "value": 34.2, "unit": "nM"}]}
{"smiles": "CC[C@H](O)C(=O)N[C@H]1CCc2c(C)c(F)cc3nc4c(c1c23)Cn1c-4cc2c(c1=O)COC(=O)[C@]2(O)CC", "note": "[Compound 31]", "values": [{"measurement": "IC50", "setting": "A431; Homo sapiens, A-431, 72 h", "value": 14.8, "unit": "nM"}, {"measurement": "IC50", "setting": "Fadu; Homo sapiens, FaDu, 72 h", "value": 17.5, "unit": "nM"}, {"measurement": "IC50", "setting": "U87-MG; Homo sapiens, U-87 MG, 72 h", "value": 10.8, "unit": "nM"}, {"measurement": "IC50", "setting": "SW620; Homo sapiens, SW-620, 72 h", "value": 17.5, "unit": "nM"}, {"measurement": "IC50", "setting": "BXPC-3; Homo sapiens, BXPC-3, 72 h", "value": 55.4, "unit": "nM"}]}
{"smiles": "CCc1c2c(nc3ccc(O)cc13)-c1cc3c(c(=O)n1C2)COC(=O)[C@]3(O)CC", "note": "[SN38, reference compound]", "values": [{"measurement": "IC50", "setting": "A431; A431, EGFR-positive cells, 3 days incubation, MTS", "value": 13.6, "unit": "nM"}, {"measurement": "IC50", "setting": "Fadu; Fadu, EGFR-positive cells, 3 days incubation, MTS", "value": 42.1, "unit": "nM"}, {"measurement": "IC50", "setting": "U87-MG; U87-MG, negative control cells, 3 days incubation, MTS", "value": 15.7, "unit": "nM"}, {"measurement": "IC50", "setting": "SW620; SW620, negative control cells, 3 days incubation, MTS", "value": 3.28, "unit": "nM"}, {"measurement": "IC50", "setting": "BXPC-3; BXPC-3, EGFR-positive cells, 3 days incubation, MTS", "value": 120, "unit": "nM"}]}
